Measured values published in ChEMBL document CHEMBL5532651, “HDAC specificity and kinase off-targeting by purine-benzohydroxamate anti-hematological tumor agents” (Eur J Med Chem, 2024).
The source made the active and inactive calls. The rule behind the calls is not given here.

Assays:
[1] = system: MCF7; assay: cells; assay type: functional, cell-based; conditions: Homo sapiens
[2] = system: HCT-116; assay: cells; conditions: Homo sapiens
[3] = system: Jurkat; assay: cells; conditions: Homo sapiens
[4] = system: NAMALVA; assay: cells; conditions: Homo sapiens
[5] = target: T1, Protein deacetylase HDAC6 (Homo sapiens, UniProt Q9UBN7); assay: Inhibition of HDAC6 (unknown origin)
T1 sequence (Q9UBN7 whole entry): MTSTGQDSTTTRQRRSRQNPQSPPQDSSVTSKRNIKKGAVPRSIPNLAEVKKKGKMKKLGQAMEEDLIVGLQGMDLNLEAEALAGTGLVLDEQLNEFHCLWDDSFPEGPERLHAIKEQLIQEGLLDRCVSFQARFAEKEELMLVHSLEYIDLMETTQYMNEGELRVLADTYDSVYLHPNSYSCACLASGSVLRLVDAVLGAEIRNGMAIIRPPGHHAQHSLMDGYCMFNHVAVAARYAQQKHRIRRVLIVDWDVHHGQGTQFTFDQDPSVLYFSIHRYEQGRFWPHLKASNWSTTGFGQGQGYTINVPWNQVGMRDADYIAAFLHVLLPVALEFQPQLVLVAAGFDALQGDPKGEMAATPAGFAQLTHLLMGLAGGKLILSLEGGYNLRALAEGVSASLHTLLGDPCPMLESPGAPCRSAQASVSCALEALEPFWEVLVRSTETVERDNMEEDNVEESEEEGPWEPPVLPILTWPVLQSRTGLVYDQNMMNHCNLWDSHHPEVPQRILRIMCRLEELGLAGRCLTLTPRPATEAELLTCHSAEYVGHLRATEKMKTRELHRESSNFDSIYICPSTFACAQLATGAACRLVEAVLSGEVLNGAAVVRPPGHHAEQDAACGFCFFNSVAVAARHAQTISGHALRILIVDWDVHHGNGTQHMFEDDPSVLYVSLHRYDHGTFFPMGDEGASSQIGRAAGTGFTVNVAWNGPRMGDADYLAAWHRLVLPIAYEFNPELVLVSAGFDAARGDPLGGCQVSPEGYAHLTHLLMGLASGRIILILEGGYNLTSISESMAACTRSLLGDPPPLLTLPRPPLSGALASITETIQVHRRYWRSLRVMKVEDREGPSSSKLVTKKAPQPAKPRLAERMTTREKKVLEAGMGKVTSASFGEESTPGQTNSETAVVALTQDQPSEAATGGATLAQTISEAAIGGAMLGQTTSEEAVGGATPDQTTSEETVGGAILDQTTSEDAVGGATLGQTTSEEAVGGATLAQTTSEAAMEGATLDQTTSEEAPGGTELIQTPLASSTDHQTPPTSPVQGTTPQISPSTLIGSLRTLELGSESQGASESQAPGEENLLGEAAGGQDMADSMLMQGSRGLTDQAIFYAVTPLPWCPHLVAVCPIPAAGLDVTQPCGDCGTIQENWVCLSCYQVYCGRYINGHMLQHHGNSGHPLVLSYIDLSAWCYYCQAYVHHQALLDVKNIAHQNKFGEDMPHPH

[6] = target: T2, CYP1A2 (Homo sapiens, UniProt P05177); assay: Inhibition of CYP1A2 in liver microsomes (unknown origin) at 10 uM incubated for 10 mins relative to control; assay type: ADME, Microsome
T2 sequence (P05177 whole entry): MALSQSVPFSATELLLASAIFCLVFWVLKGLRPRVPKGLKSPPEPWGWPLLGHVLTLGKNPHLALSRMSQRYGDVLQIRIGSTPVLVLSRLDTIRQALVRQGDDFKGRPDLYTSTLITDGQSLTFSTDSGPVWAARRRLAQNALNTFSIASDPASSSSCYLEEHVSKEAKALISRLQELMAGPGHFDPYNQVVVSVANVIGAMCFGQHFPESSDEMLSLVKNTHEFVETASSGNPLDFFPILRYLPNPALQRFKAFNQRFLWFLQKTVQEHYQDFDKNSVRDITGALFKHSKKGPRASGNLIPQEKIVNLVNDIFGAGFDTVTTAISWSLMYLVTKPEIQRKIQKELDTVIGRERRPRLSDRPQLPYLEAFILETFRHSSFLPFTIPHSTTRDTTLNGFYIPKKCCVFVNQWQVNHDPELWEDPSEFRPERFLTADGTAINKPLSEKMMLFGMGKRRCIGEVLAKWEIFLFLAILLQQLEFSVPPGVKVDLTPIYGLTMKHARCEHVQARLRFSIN

[7] = target: CYP2D6 (Homo sapiens, UniProt P10635); assay: Inhibition of CYP2D6 in liver microsomes (unknown origin) at 10 uM incubated for 10 mins relative to control; assay type: ADME, Microsome
[8] = Stability in human liver microsome assessed as half life at 1 uM measured for 60 mins by LC-MS/MS analysis; assay type: ADME; conditions: liver microsomes
[9] = Stability in mouse liver microsome assessed as half life at 1 uM measured for 60 mins by LC-MS/MS analysis; assay type: ADME; conditions: liver microsomes
[10] = Stability in human liver microsome assessed as intrinsic clearance at 1 uM measured for 60 mins by LC-MS/MS analysis; assay type: ADME; conditions: liver microsomes, read-out: CLH
[11] = Stability in mouse liver microsome assessed as intrinsic clearance at 1 uM measured for 60 mins by LC-MS/MS analysis; assay type: ADME; conditions: liver microsomes, read-out: CLH
[12] = system: Jurkat; assay: Cytotoxicity against human Jurkat cells assessed as cell growth inhibition at 0.03 to 1.8 uM by MTT assay; assay type: functional, cell-based; conditions: dose 0.03-1.8 µM, time lower 24.0 hrs, time upper […], TDE = time-dependent effect
[13] = system: NAMALVA; assay: Cytotoxicity against human NAMALVA cells assessed as cell growth inhibition at 0.04 to 17.4 uM by MTT assay; assay type: functional, cell-based; conditions: dose 0.04-17.4 µM, time lower 24.0 hrs, time upper […], TDE = time-dependent effect
[14] = system: U-937; assay: Cytotoxicity against human U-937 cells assessed as cell growth inhibition at 1.6 to 6.4 uM by MTT assay; assay type: functional, cell-based; conditions: dose 1.6-6.4 µM, time lower 24.0 hrs, time upper […], TDE = time-dependent effect
[15] = system: U-937; assay: Cytotoxicity against human U-937 cells assessed as cell growth inhibition incubated for 24 to 72 hrs by MTT assay; assay type: functional, cell-based; conditions: time lower 24.0 hrs, time upper […]
[16] = system: Jurkat; assay: Inhibition of cell proliferation of human Jurkat cells assessed as reduction in Ki-67 expression at IC50 measured after 48 hrs by flow cytometry; assay type: functional, cell-based
[17] = system: U-937; assay: Inhibition of cell proliferation of human U-937 cells assessed as reduction in Ki-67 expression at IC50 measured after 48 hrs by flow cytometry; assay type: functional, cell-based
[18] = system: NAMALVA; assay: Inhibition of cell proliferation of human NAMALVA cells assessed as reduction in Ki-67 expression at IC50 measured after 48 hrs by flow cytometry; assay type: functional, cell-based
[19] = system: Jurkat; assay: Induction of apoptosis in human Jurkat cells at IC50 measured after 48 hrs by flow cytometry; assay type: functional, cell-based
[20] = system: U-937; assay: Induction of apoptosis in human U-937 cells at IC50 measured after 48 hrs by flow cytometry; assay type: functional, cell-based
[21] = system: NAMALVA; assay: Induction of apoptosis in human NAMALVA cells at IC50 measured after 48 hrs by flow cytometry; assay type: functional, cell-based
[22] = target: T1, Protein deacetylase HDAC6; assay: Inhibition of full-length recombinant human HDAC6 expressed in baculovirus infected Sf9 cells using RHKK(Ac)AMC as substrate preincubated for 5 to 10 mins followed by substrate addition measured after 2 hrs by fluorescence based assay
[23] = target: T3, Protein deacetylase HDAC6 (Homo sapiens) (UniProt Q9UBN7); assay: Inhibition of HDAC6 in human Jurkat cells assessed as increase in acetyl-histone H3 level at IC50 incubated for 48 hrs by Western blot analysis; assay type: cell-based
T3 sequence (whole entry): T1 sequence (Q9UBN7 whole entry)

[24] = target: T3, Protein deacetylase HDAC6 (Homo sapiens); assay: Inhibition of HDAC6 in human NAMALVA cells assessed as increase in acetyl-histone H3 level at IC50 incubated for 48 hrs by Western blot analysis; assay type: cell-based
[25] = target: T3, Protein deacetylase HDAC6 (Homo sapiens); assay: Inhibition of HDAC6 in human U-937 cells assessed as increase in acetyl-histone H3 level at IC50 incubated for 48 hrs by Western blot analysis; assay type: cell-based
[26] = target: T3, Protein deacetylase HDAC6 (Homo sapiens); assay: Inhibition of HDAC6 in human Jurkat cells assessed as increase in acetyl-alpha-tubulin level at IC50 incubated for 48 hrs by Western blot analysis; assay type: cell-based
[27] = target: T3, Protein deacetylase HDAC6 (Homo sapiens); assay: Inhibition of HDAC6 in human NAMALVA cells assessed as increase in acetyl-alpha-tubulin level at IC50 incubated for 48 hrs by Western blot analysis; assay type: cell-based
[28] = target: T3, Protein deacetylase HDAC6 (Homo sapiens); assay: Inhibition of HDAC6 in human U-937 cells assessed as increase in acetyl-alpha-tubulin level at IC50 incubated for 48 hrs by Western blot analysis; assay type: cell-based
[29] = target: CYP2C9 (Homo sapiens, UniProt P11712); assay: Inhibition of CYP2C9 in liver microsomes (unknown origin) at 10 uM incubated for 10 mins relative to control; assay type: ADME, Microsome
[30] = target: T2, CYP1A2; assay: Inhibition of CYP1A2 in liver microsomes (unknown origin) at 40 uM incubated for 10 mins relative to control; assay type: ADME, Microsome

CYP2D6, sequence (P10635 whole entry): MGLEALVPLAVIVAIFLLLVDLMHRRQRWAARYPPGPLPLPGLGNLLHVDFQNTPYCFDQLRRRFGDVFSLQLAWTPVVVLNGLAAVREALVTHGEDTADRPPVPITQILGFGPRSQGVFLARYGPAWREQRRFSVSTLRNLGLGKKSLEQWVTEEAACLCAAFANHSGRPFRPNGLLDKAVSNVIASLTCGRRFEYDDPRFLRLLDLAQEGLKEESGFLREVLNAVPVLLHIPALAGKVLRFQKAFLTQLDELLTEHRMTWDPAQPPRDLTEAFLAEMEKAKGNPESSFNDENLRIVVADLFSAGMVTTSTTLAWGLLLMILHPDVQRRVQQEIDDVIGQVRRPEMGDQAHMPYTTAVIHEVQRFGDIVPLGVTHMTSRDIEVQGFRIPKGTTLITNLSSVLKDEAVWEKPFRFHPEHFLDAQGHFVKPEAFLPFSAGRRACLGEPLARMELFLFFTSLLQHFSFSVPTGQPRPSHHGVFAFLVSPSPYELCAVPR
CYP2C9, sequence (P11712 whole entry): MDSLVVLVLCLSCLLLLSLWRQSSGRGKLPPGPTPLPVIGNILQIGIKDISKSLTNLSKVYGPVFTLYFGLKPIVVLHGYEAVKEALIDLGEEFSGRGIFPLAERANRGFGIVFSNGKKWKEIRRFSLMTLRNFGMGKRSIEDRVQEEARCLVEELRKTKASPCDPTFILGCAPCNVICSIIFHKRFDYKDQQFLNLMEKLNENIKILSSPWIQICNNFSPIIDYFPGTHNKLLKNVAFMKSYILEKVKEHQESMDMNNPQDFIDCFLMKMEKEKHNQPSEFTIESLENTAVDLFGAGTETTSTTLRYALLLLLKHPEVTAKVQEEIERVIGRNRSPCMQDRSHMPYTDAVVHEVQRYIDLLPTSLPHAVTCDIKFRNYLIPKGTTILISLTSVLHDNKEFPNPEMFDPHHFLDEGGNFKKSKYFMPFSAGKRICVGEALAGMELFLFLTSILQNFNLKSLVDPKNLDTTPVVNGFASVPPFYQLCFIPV

## O=C(NO)c1ccc(Cn2cnc3c(Nc4ccc(Cl)c(C(F)(F)F)c4)ncnc32)cc1
[1]
  IC50: 13.2 µM
[2]
  IC50: 2.9 µM
[3]
  IC50: 0.25 µM
[4]
  IC50: 0.26 µM

## COC(=O)c1ccc(Cn2cnc3c(Nc4ccc(Cl)c(C(F)(F)F)c4)ncnc32)cc1
[1]
  IC50: > 50 µM
[2]
  IC50: > 50 µM
[3]
  IC50: > 50 µM
[4]
  IC50: > 50 µM

## O=C(NO)c1ccc(Cn2cnc3c(Nc4ccccc4)ncnc32)cc1
[1]
  IC50: > 50 µM
[2]
  IC50: > 50 µM
[3]
  IC50: 0.2 µM
[4]
  IC50: 0.13 µM

## COc1cc(Nc2ncnc3c2ncn3Cc2ccc(C(=O)NO)cc2)cc(OC)c1OC
[1]
  IC50: > 50 µM
[2]
  IC50: > 50 µM
[4]
  IC50: 0.8 µM

## O=C(/C=C/c1cccc(S(=O)(=O)Nc2ccccc2)c1)NO [BELINOSTAT]
[5]
  IC50: 2.6 µM

## COc1ccc(Nc2ncnc3c2ncn3Cc2ccc(C(=O)NO)cc2)cc1OC
[1]
  IC50: > 50 µM
[2]
  IC50: 16.3 µM
[3]
  IC50: 0.6 µM
[4]
  IC50: 0.5 µM

## Nc1ccc(S(=O)(=O)Nc2ccnn2-c2ccccc2)cc1 [SULFAPHENAZOLE]
[6]
  inhibition at 10 min, 10 µM: 10%
[7]
  inhibition at 10 min, 10 µM: 10%

## O=C(NO)c1cccc(Cn2cnc3c(O)ncnc32)c1
[1]
  IC50: > 50 µM
[2]
  IC50: > 50 µM
[3]
  IC50: > 50 µM
[4]
  IC50: > 50 µM

## O=C(NO)c1ccc(Cn2cnc3c(O)ncnc32)cc1
[1]
  IC50: > 50 µM
[2]
  IC50: > 50 µM
[3]
  IC50: > 50 µM
[4]
  IC50: > 50 µM

## CCN(CC)CCNC(=O)c1c(C)[nH]c(/C=C2\C(=O)Nc3ccc(F)cc32)c1C [SUNITINIB]
[8]
  half-life at 1 µM: 33 min
[9]
  half-life at 1 µM: 12 min
[10]
  microsomal CLint at 1 µM: 21 µL/min/mg
[11]
  microsomal CLint at 1 µM: 58 µL/min/mg

## O=C(NO)c1ccc(Cn2cnc3c(Nc4ccc(Br)cc4F)ncnc32)cc1
[1]
  IC50: 21.7 µM
[12]
  inhibition: Tde
[13]
  inhibition: Tde
[14]
  inhibition: Tde
[15]
  inhibition: Dose-Dependent Effect
[16]
  inhibition: Active
[17]
  inhibition: Active
[18]
  inhibition: Active
[19]
  Activity: Active
[20]
  Activity: Active
[21]
  Activity: Active
[22]
  IC50: 0.184 µM
[23]
  inhibition: Active
[24]
  inhibition: Active
[25]
  inhibition: Active
[26]
  inhibition: Active
[27]
  inhibition: Active
[28]
  inhibition: Active
[6]
  inhibition at 10 min, 10 µM: 47%
[29]
  inhibition at 10 min, 10 µM: 42%
[7]
  inhibition at 10 min, 10 µM: 10%
[8]
  half-life at 1 µM: > 120 min
[9]
  half-life at 1 µM: 35 min
[10]
  microsomal CLint at 1 µM: < 6 µL/min/mg
[11]
  microsomal CLint at 1 µM: 20 µL/min/mg
[2]
  IC50: 21.7 µM
[3]
  IC50: 0.03 µM
[4]
  IC50: 0.04 µM

## Cc1nc2c([nH]1)c(=O)n(C)c(=O)n2Cc1ccco1 [FURAFYLLINE]
[29]
  inhibition at 10 min, 10 µM: 10%
[7]
  inhibition at 10 min, 10 µM: 10%
[30]
  inhibition at 10 min, 40 µM: 78%

## Cc1ccc(Nc2ncnc3c2ncn3Cc2ccc(C(=O)NO)cc2)cc1S(N)(=O)=O
[1]
  IC50: > 50 µM
[2]
  IC50: > 50 µM
[3]
  IC50: > 50 µM
[4]
  IC50: > 50 µM

## O=C(NO)c1ccc(Nc2ncnc3[nH]cnc23)cc1
[1]
  IC50: > 50 µM
[2]
  IC50: > 50 µM
[3]
  IC50: > 50 µM
[4]
  IC50: > 50 µM

## CC(=O)N1CCN(c2ccc(OCC3COC(Cn4ccnc4)(c4ccc(Cl)cc4Cl)O3)cc2)CC1 (stereo not drawn) [KETOCONAZOLE]
[6]
  inhibition at 10 min, 10 µM: 10%
[29]
  inhibition at 10 min, 10 µM: 10%

## C=C[C@H]1C[N@@]2CC[C@H]1C[C@@H]2[C@@H](O)c1ccnc2ccc(OC)cc12 [QUINIDINE]
[6]
  inhibition at 10 min, 10 µM: 10%
[29]
  inhibition at 10 min, 10 µM: 10%
[7]
  inhibition at 10 min, 10 µM: 86%
